This is an account of results in US8957074B2 (Novartis AG, priority 2010, dated 2015).

Like-named read-outs stand apart in the source and are kept apart here. A value given as a limit tells only on which side of the number the result lay.

For one assay, the target named is CDK1/cyclin B (Homo sapiens (Human), UniProt P06493). Kind of assay: CDK1/cyclin B enzymatic activity assay (IMAP-FP). The assay is classed as biochemical. The conditions noted are these: 100 nM Tamra Histone-H1 peptide, 20 μM ATP, 120 min at room temperature, read-out: Biochemical CDK1 enzyme IC50. The source says: CDK1/Cyclin B Enzymatic Activity Assay
A 384-well microtiter IMAP-FP™ (Molecular Devices Trade Mark Technology) endpoint assay was used for CDK1/cyclin B kinase activity measurements. The same assay was used for IC50 determination of small molecule inhibitors.

The next assay concerns the target CDK4/cyclin D1 (Homo sapiens (Human), UniProt P11802). The experiment in a line: CDK4/cyclin D1 enzymatic activity assay (TR-FRET, phosphorylation of pRb at Ser780). The conditions noted are these: 0.3 nM CDK4/cyclin D1, 150 nM biotin-pRb (773-924), 3 μM ATP, 60 min at 22° C.; read-out: Biochemical CDK4 enzyme IC50. The assay is classed as biochemical. As to the method:
CDK4/Cyclin D1 Enzymatic Activity Assay
An assay for monitoring CDK4/cyclin D1-catalyzed phosphorylation of pRb at the Ser780 site was performed using TR-FRET in a 384-well format, and was used for IC50 determination and kinetic analysis. […] 3 μM ATP was added last to initiate the reaction. The reaction was quenched with 10 μL of 240 mM EDTA-Na (pH 8.0) after 60 min incubation at 22° C.
Human CDK4/cyclin D1 was expressed in Sf21 cells via baculovirus infection.
A general note: In TR-FRET formats the signal depends on donor and acceptor labels being close together.

The subject of assay [1] is phosphorylation of pRb at the Ser780 site in JeKo-1 mantle cell lymphoma cells. Kind of assay: CDK4 cellular assay: ELISA of pRb phosphorylation at Ser780 in JeKo-1 cells. The assay is classed as cell-based. To be noted: Homo sapiens. The text has this: Cell-based assay measuring phosphorylation levels of pRb at the Ser780 site using an enzyme-linked immunosorbent assay (ELISA) method (Table 6). JeKo-1, a mantle-cell lymphoma cell line, was selected for use in this assay due to its known translocation and subsequent overexpression of cyclin D1. [Ref: Amin, H. M.; McDonnell, T. J.; Medeiros, L. J.; Rassidakis, G. Z.; Leventaki, V.; O'Connor, S. L.; Keating, M. J.; Lai, R. Characterization of 4 mantle cell lymphoma cell lines—Establishment of an in vitro study model. Arch. Pathol. Lab.
Cells were allowed to adhere overnight. […] 10 μL of the dilution were then transferred to the cell culture plate, resulting in a final concentration range of 10 μM to 2 nM. The incubation was carried out at 37° C. with 5% CO2. All compounds were tested in triplicates at each concentration. […] The plates were placed at 4° C. with vigorous shaking for 5 min to lyse the cells. The resulting lysates contained approximately 1 μg/μL of protein.
Plates were incubated overnight at 4° C. with rocking. […] After shaking for 10 minutes, the Superblock solution was replaced with fresh Superblock and plates were incubated on a shaker for an additional 50 min. After blocking, 30 μL of JeKo-1 cell lysate, containing approximately 10 μg total protein, were added to wells in triplicate. […] For all incubation steps, plates were covered with Uniseal plate sealers. […] Next, 50 μL of a 1:2500 dilution of donkey-anti-rabbit HRP (Promega catalog no. W401B) in PBS/10% Superblock were added, and plates were incubated for 30 min at room temperature on a shaker. Plates were again washed as described above. […] After incubation, 50 μL 2 M sulfuric acid were added to plates to top the reaction, and absorbance was determined on a SpectraMax (Molecular Devices, Sunnydale, Calif.) within 15 minutes at 450 nm. All washes were performed using a Bio-Tek plate washer.
The Total Rb ELISA kit (Invitrogen catalog no. KH00011) was used to determine the levels of total pRb. This kit uses wells precoated with a proprietary total pRb antibody for capture. All reagents listed, with the exception of cell lysate, were included in the kit. The nature of the antibodies used for capture and detection was labeled as proprietary and not disclosed. 10 μg of cell lysate was loaded into the wells and volume adjusted to 50 μL with standard dilution buffer. Plates were sealed with film included in the kit and incubated for 2 h at room temperature on a shaker. Plates are then manually washed three times with 250 μL wash buffer. 50 μL of proprietary primary antibody (pre-conjugated to biotin) was added to wells and incubated for 1 h at room temperature on a shaker. Then plates were again washed as noted above. The secondary antibody (HRP pre-conjugated to Streptavidin) was diluted 1:100 in Streptavidin-HRP diluent buffer and 50 μL was added to each well. Plates were then incubated for 30 min. Afterwards, plates were washed four times with buffer as outlined above. Finally, 50 μL stabilized Chromogen was added per well and plates were incubated for 15 min, at which point 50 μL of stop solution was added. Plates were then read on a Spectramax at 450 nm.
The total pRb levels were then used to adjust the p-pRb % inhibition values to account for any loss of signal due to the absence of the pRb protein itself, and the IC50 values obtained from the adjusted % inhibitions represent normalized cellular p-pRb IC50.

[2] abbreviates: JeKo-1 cells, p-pRb Ser780 ELISA, non-normalized, read-out: Cellular ppRb inhibition IC50.
Setting [3] is: JeKo-1 cells, p-pRb % inhibition adjusted with total pRb levels, read-out: Normalized cellular ppRb inhibition IC50.
[4] abbreviates: JeKo-1, JeKo-1 cells, p-pRb % inhibition adjusted with total pRb levels, read-out: Normalized cellular ppRb inhibition IC50.
[5] abbreviates: JeKo-1, JeKo-1 cells, p-pRb Ser780 ELISA, non-normalized, read-out: Cellular ppRb inhibition IC50.
[6] abbreviates: JeKo-1, read-out: Cellular ppRb inhibition IC50.
[7] abbreviates: JeKo-1, read-out: Normalized cellular ppRb inhibition IC50.

Sequence of CDK1/cyclin B (P06493 whole entry, species assumed): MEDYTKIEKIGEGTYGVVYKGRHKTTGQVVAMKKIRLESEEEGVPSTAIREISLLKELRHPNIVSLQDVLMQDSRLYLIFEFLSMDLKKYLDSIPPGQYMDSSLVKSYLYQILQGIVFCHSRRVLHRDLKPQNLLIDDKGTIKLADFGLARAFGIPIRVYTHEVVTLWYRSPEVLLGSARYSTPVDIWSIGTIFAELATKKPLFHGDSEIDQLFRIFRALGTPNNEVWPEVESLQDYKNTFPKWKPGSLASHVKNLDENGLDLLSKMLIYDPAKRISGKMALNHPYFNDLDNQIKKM
Sequence of CDK1/cyclin B (P14635 whole entry partner, species assumed): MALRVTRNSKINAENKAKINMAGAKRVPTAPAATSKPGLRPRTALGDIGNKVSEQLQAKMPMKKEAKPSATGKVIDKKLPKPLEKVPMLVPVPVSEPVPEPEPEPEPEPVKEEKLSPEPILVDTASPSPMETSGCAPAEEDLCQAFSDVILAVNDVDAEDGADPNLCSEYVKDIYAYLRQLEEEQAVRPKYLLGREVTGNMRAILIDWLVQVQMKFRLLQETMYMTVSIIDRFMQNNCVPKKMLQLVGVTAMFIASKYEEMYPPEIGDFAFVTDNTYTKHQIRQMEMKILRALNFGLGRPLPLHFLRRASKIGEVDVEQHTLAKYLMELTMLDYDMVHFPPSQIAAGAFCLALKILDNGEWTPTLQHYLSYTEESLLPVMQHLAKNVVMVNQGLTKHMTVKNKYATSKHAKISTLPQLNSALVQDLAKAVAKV
Sequence of CDK4/cyclin D1 (P11802 whole entry): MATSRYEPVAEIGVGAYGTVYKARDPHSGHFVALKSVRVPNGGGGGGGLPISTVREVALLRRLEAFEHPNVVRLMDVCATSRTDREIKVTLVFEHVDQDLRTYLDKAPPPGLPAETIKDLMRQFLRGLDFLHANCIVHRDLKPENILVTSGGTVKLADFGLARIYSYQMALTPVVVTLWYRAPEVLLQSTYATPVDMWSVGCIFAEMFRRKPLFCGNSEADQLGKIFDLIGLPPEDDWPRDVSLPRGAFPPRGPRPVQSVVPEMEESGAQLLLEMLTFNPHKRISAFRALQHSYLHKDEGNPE
Sequence of CDK4/cyclin D1 (P24385 whole entry partner): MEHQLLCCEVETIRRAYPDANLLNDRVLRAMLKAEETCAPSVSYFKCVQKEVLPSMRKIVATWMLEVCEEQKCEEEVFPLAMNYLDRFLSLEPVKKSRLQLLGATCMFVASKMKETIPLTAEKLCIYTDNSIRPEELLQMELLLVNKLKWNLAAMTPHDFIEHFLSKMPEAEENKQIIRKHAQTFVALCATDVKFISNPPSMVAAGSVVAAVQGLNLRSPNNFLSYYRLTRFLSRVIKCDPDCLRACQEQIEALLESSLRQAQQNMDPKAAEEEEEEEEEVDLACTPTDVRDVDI

`CC(=O)NCC(=O)N1[C@@H]2CC[C@H]1CN(c1ccc(Nc3ncc4cc(C(=O)N(C)C)n(C5CCCC5)c4n3)nc1)C(=O)C2` [Example 138, 2-(5-((1S,6R)-9-(2-acetamidoacetyl)-4-oxo-3,9-diazabicyclo[4.2.1]nonan-3-yl)pyridin-2-ylamino)-7-cyclopentyl-N,N-dimethyl-7H-pyrrolo[2,3-d]pyrimidine-6-carboxamide]: the IC50 (in general, the concentration at which inhibition is half-maximal) is over 15000 nM on CDK1/cyclin B ([…] CDK1/cyclin B), 106 nM at CDK4/cyclin D1 and 1600 nM in assay [1] (setting [2]).

On to `CN(C)C(=O)c1cc2cnc(Nc3ccc(N4CC5COCC(CC4=O)N5)cn3)nc2n1C1CCCC1` (centres unmarked) [Example 145, 7-Cyclopentyl-2-[5-(4-oxo-8-oxa-3,10-diaza-bicyclo[4.3.1]dec-3-yl)-pyridin-2-ylamino]-7H-pyrrolo[2,3-d]pyrimidine-6-carboxylic acid dimethylamide], for which the 50% inhibitory concentration (IC50) at CDK1/cyclin B ([…] CDK1/cyclin B) is over 15000 nM; on CDK4/cyclin D1, 32 nM; in assay [1] (setting [3]), 162 nM; in assay [1] (setting [2]) it was 45 nM.

Take `Cc1cc(Nc2ncc3cc(C(=O)N(C)C)n(C4CCCC4)c3n2)ncc1C(=O)N1CC2CCC(C1)N2` [Example 51, 7-Cyclopentyl-2-[5-(3,8-diaza-bicyclo[3.2.1]octane-3-carbonyl)-4-methyl-pyridin-2-ylamino]-7H-pyrrolo[2,3-d]pyrimidine-6-carboxylic acid dimethylamide]: the half-maximal inhibitory concentration (IC50) is over 15000 nM at CDK1/cyclin B (0.25 nM CDK1/cyclin B), 23 nM on CDK4/cyclin D1, 60 nM in assay [1] (setting [3]) and 28 nM in assay [1] (setting [2]).

As to `CN(C)C(=O)c1cc2cnc(Nc3ccc(C(=O)N4CC5CNCC5C4)cn3)nc2n1C1CCCC1` (centres unmarked) [Example 32, 7-cyclopentyl-N,N-dimethyl-2-(5-(octahydropyrrolo[3,4-c]pyrrole-2-carbonyl)pyridin-2-ylamino)-7H-pyrrolo[2,3-d]pyrimidine-6-carboxamide], the concentration for half-maximal inhibition (IC50) was over 15000 nM at CDK1/cyclin B ([…] CDK1/cyclin B), 15 to 21 nM at CDK4/cyclin D1, 212 nM in assay [1] (setting [4]) and 131 nM in assay [1] (setting [5]).

As for `CN(C)C(=O)c1cc2cnc(Nc3ccc(C(=O)N4CCC[C@@H]5CCN[C@@H]5C4)cn3)nc2n1C1CCCC1` [Example 25, 7-Cyclopentyl-2-[5-((3aR,8aS)-octahydro-pyrrolo[2,3-c]azepine-7-carbonyl)-pyridin-2-ylamino]-7H-pyrrolo[2,3-d]pyrimidine-6-carboxylic acid dimethylamide], the IC50 at CDK1/cyclin B ([…] CDK1/cyclin B) was over 15000 nM; on CDK4/cyclin D1, 8 nM; in assay [1] (setting [4]) it was 22 nM; in assay [1] (setting [5]), 20 nM.

`CN(C)C(=O)c1cc2cnc(Nc3ccc(C(=O)N4[C@@H]5CC[C@H]4C[C@@H](O)C5)cn3)nc2n1C1CCCC1` [Example 44, 7-Cyclopentyl-2-[5-((1S,3R,5R)-3-hydroxy-8-aza-bicyclo[3.2.1]octane-8-carbonyl)-pyridin-2-ylamino]-7H-pyrrolo[2,3-d]pyrimidine-6-carboxylic acid dimethylamide]: the concentration for half-maximal inhibition (IC50) at CDK1/cyclin B ([…] CDK1/cyclin B) is over 15000 nM; on CDK4/cyclin D1, 177 to 351 nM; in assay [1] (setting [6]) it was 720 to 1490 nM; in assay [1] (setting [7]), 778 nM.

For the molecule `CN(C)C(=O)c1cc2cnc(Nc3ccc(C(=O)N4C[C@@H]5C[C@H]4C[C@@H]5O)cn3)nc2n1C1CCCC1` [Example 30, 7-cyclopentyl-2-(5-((1S,4S,5S)-5-hydroxy-2-azabicyclo[2.2.1]heptane-2-carbonyl)pyridin-2-ylamino)-N,N-dimethyl-7H-pyrrolo[2,3-d]pyrimidine-6-carboxamide], the half-maximal inhibitory concentration (IC50) was over 15000 nM at CDK1/cyclin B ([…] CDK1/cyclin B), 88 to 114 nM at CDK4/cyclin D1, 344 to 582 nM in assay [1] (setting [3]) and 422 to 542 nM in assay [1] (setting [2]).

Turning to `CN(C)C(=O)c1cc2cnc(Nc3ccc(C(=O)N4CC5CNC(C5)C4)cn3)nc2n1C1CCCC1` (racemic) [Example 9, 7-Cyclopentyl-2-[5-(3,6-diaza-bicyclo[3.2.1]octane-3-carbonyl)-pyridin-2-ylamino]-7H-pyrrolo[2,3-d]pyrimidine-6-carboxylic acid dimethylamide], the IC50 on CDK1/cyclin B ([…] CDK1/cyclin B) was 7100 nM; on CDK4/cyclin D1, under 4 nM; in assay [1] (setting [4]), 120 nM; in assay [1] (setting [5]), 55 nM.

As for `CN(C)C(=O)c1cc2cnc(Nc3ccc(N4C[C@H]5CC[C@@H](CC4=O)N5)cn3)nc2n1C1CCCC1` [Example 123, 7-Cyclopentyl-2-[5-((1R,6S)-4-oxo-3,9-diaza-bicyclo[4.2.1]non-3-yl)-pyridin-2-ylamino]-7H-pyrrolo[2,3-d]pyrimidine-6-carboxylic acid dimethylamide], the half-inhibitory concentration (IC50) on CDK1/cyclin B ([…] CDK1/cyclin B) was 29300 nM; at CDK4/cyclin D1 it was 3 nM; in assay [1] (setting [4]), 8 to 99 nM; in assay [1] (setting [5]), 5 to 16 nM.

As for `CN(C)C(=O)c1cc2cnc(Nc3ccc(N4CCCC5(CCNCC5)C4=O)cn3)nc2n1C1CCCC1` [Example 114, 7-Cyclopentyl-2-[5-(1-oxo-2,9-diaza-spiro[5,5]undec-2-yl)-pyridin-2-ylamino]-7H-pyrrolo[2,3-d]pyrimidine-6-carboxylic acid dimethylamide], the IC50 is over 15000 nM at CDK1/cyclin B (0.25 nM CDK1/cyclin B), 190 nM at CDK4/cyclin D1, 1350 nM in assay [1] (setting [6]) and 7100 nM in assay [1] (setting [7]).

On to `CN(C)C(=O)c1cc2cnc(Nc3ccc(C(=O)N4CC5CCC(C4)N5)cn3)nc2n1-c1ccc(C(C)(C)C)cc1` [Example 53, 7-(4-tert-Butyl-phenyl)-2-[5-(3,8-diaza-bicyclo[3.2.1]octane-3-carbonyl)-pyridin-2-ylamino]-7H-pyrrolo[2,3-d]pyrimidine-6-carboxylic acid dimethylamide], for which the IC50 on CDK1/cyclin B ([…] CDK1/cyclin B) was over 15000 nM; on CDK4/cyclin D1, 3 nM; in assay [1] (setting [4]), 7 to 27 nM; in assay [1] (setting [5]), 7 to 14 nM.

`CN(C)C(=O)c1cc2cnc(Nc3ccc(N4CC5(CC4=O)CC4CCC(C5)N4)cn3)nc2n1C1CCCOC1` (centres unmarked) [Example 120, N,N-dimethyl-2-(5-(5′-oxo-8-azaspiro[bicyclo[3.2.1]octane-3,3′-pyrrolidine]-1′-yl)pyridin-2-ylamino)-7-(tetrahydro-2H-pyran-3-yl)-7H-pyrrolo[2,3-d]pyrimidine-6-carboxamide]: the IC50 at CDK1/cyclin B ([…] CDK1/cyclin B) is over 15000 nM; on CDK4/cyclin D1, 66 nM; in assay [1] (setting [3]), 1030 nM; in assay [1] (setting [2]) it was 677 nM.
